Where two headings read alike, the source gives them in different places.

For series [1], the target named is DNA-PK phosphorylation at serine 2056 (Homo sapiens (Human), UniProt P78527). Description: DNA-PK phosphorylation at serine 2056 (cellular), bleomycin-treated HCT116 cells, ELISA. Type of series: cell-based. The note with it: read-out: IC50 pDNA-PK. An outline of the steps:
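HCT116 cells were treated with 10 μM bleomycin plus test compounds for six hours at 37 °C. Phospho-Ser2056 DNA-PK measured by chemiluminescent ELISA, normalised to total DNA-PKcs signal; DMSO control as blank.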

The next series addresses DNA-PK (Homo sapiens (Human), UniProt P78527). Description: DNA-PK assay (biochemical), flashplate 33P-ATP kinase assay. Put shortly: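 Radiometric kinase reaction in streptavidin-coated flashplates, stopped with 200 mM EDTA, then 30 min room-temperature incubation and saline washes.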
In another series the target is Kv11.1 (hERG) (Homo sapiens (Human), UniProt Q12809). In words: Kv11.1 (hERG) ion channel activity (patch clamp assay), HEK293 cells transfected with hERG gene.
Where [2] appears, read: cellular, HCT116 cells, 10 μM bleomycin, six hours.
[3] abbreviates: Ki [Kv1.11 hERG], patch clamp, HEK293 transfected with hERG gene.
The mark [4] stands for this setting: cellular DNA-PK phosphorylation at serine 2056, HCT116.
Setting [5] is: Ki [Kv1.11 hERG], hERG patch clamp assay (cells without asterisk).
The mark [6] stands for this setting: read-out: Ki [Kv1.11 hERG], patch clamp, HEK293 transfected with hERG gene.
Setting [7] is: read-out: Ki [Kv1.11 hERG], hERG patch clamp assay (cells without asterisk).

Chain of Kv11.1 (hERG) (Q12809 whole entry): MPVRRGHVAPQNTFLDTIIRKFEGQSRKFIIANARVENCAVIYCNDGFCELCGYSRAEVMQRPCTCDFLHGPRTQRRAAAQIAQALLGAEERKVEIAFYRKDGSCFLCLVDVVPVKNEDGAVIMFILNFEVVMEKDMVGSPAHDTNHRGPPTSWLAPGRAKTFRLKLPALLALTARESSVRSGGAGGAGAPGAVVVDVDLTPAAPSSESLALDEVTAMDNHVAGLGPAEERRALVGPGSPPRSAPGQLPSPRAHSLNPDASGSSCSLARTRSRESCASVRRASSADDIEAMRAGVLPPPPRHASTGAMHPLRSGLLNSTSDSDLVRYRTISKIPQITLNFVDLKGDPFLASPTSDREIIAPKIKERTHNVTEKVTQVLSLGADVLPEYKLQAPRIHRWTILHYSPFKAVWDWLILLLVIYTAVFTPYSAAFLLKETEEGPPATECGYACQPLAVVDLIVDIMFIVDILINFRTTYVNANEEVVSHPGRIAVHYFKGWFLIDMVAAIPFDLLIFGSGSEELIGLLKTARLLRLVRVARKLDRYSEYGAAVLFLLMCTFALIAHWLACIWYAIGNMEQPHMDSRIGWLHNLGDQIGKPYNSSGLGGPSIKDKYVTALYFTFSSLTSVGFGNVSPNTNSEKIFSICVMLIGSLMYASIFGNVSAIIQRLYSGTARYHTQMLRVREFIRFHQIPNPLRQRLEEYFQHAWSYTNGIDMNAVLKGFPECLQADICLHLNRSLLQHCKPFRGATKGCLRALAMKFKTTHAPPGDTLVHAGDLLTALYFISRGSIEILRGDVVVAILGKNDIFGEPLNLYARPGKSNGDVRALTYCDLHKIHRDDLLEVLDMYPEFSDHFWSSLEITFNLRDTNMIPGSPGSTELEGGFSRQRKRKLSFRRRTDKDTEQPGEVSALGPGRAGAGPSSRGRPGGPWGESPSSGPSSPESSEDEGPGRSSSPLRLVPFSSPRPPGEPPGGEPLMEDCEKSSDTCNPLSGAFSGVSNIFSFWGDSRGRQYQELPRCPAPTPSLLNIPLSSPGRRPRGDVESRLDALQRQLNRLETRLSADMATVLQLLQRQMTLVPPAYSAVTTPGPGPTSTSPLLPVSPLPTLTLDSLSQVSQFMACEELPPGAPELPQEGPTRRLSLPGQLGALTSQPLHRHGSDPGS
Method for Kv11.1 (hERG): C) Kv11.1 (hERG) Ion Channel Activity (Patch Clamp Assay)
The patch-clamp measurement was carried out at room temperature in whole-cell configuration on human embryonic kidney cells (HEK293) which have been transfected in a stable manner with the hERG gene.
The whole-cell configurations were carried out using an automated patch clamp device (Patchliner™, Nanion Technologies, Munich). […] The glass chip has a hole of defined size to which the cell is transferred into the Gigaseal by application of a reduced pressure and brought into the whole-cell configuration. Buffer, cell suspension and test substances were added to microchannels of the chip using a Teflon-coated pipette. The cells were clamped to a holding potential of −80 mV. For measurement of substance-promoted inhibition of the Kv11.1 channel, the following voltage protocol was applied at 10-second intervals: 51 ms/−80 mV, 500 ms/+40 mV, 500 ms/−40 mV, 200 ms/−80 mV. The leakage current is subtracted by means of the P4 method. The cells were resuspended in extracellular buffer (EC) and applied to the chip. After the cell had been collected, the seal was improved by addition of a seal enhancer buffer. As soon as the whole-cell configuration had been reached, the seal enhancer buffer was washed out and replaced by extracellular buffer. The measurement started in EC for 1.5 min. DMSO (vehicle control, 0.1% of DMSO) was then applied, and the control current was recorded for 3 min. The test substance was subsequently added twice in the same concentration, and the potassium current was measured for 3.5 min in each case.
The reference substance used was the Kv11.1 (hERG) ion channel blocker quinidine. The effects of test substances and quinidine were standardised to the associated vehicle control. The effect on the Kv11.1 (hERG) channel activity was assessed from the potassium current at −40 mV. For the calculation, the current was evaluated for the respective final trace.
During the measurement, an aliquot of the test substance was taken for concentration determination. The sample was measured immediately by HPLC, and the final concentration was determined from a calibration curve.

On to `OC(c1ccccn1)c1cc(-c2ncnc3cc(N4CCOCC4)ccc23)c(F)cc1F` (stereo not drawn) [Example 218, [2,4-Difluoro-5-(7-morpholin-4-yl-quinazolin-4-yl)-phenyl]pyridin-2-yl-methanol], for which the IC50 in series [1] (Table 7, HCT116 cells) was < 0.5 µM; at DNA-PK (Table 7) it was 0.003 to 0.007 µM. In addition, the Ki at Kv11.1 (hERG) (Ki [Kv1.11 hERG], Table 7) was in the range of 15 to 25 µM.
With `OC(c1ccc(F)c(-c2ncnc3cc(N4CCOCC4)ccc23)c1)c1c(F)cncc1F` (stereo not drawn) [Example 1, (3,5-Difluoropyridin-4-yl)-[4-fluoro-3-(7-morpholin-4-ylquinazolin-4-yl)phenyl]methanol], the IC50 in series [1] (setting [2]) fell in the range of 0.5 to 5 µM; on DNA-PK (enzymatic, 5 μM ATP), 0.003 to 0.007 µM. Besides, at Kv11.1 (hERG) (setting [3]), the inhibition constant Ki lay in the range of 15 to 25 µM.
With `OC(c1cccnn1)c1cc(-c2ncnc3cc(N4CCOCC4)ccc23)c(F)cc1F` (stereo not drawn) [Example 48, [2,4-Difluoro-5-(7-morpholin-4-yl-quinazolin-4-yl)phenyl]-pyridazin-3-ylmethanol], the half-inhibitory concentration (IC50) in series [1] (setting [2]) was 0.5 to 5 µM; against DNA-PK (enzymatic, 5 μM ATP), 0.003 to 0.007 µM. The compound further had a Ki on Kv11.1 (hERG) (setting [3]) of 15 to 25 µM.
For the compound `OC(c1cccnn1)c1cc(-c2ncnc3cc(N4CCOCC4)ccc23)ccc1Cl` (stereo not drawn) [Example 479, (2-Chloro-5-(7-morpholin-4-yl-quinazolin-4-yl)-phenyl]pyridazin-3-yl-methanol], the IC50 in series [1] (setting [4]) is < 0.5 µM; against DNA-PK (biochemical DNA-PK assay), 0.003 to 0.007 µM. At Kv11.1 (hERG) (setting [5]), this compound registered a Ki of 15 to 25 µM.
With `Cn1nc(C(O)c2cc(-c3ncnc4cc(N5CCOCC5)ccc34)c(F)cc2Cl)ccc1=O` (single isomer, unassigned) [Example 44, 6-{[2-Chloro-4-fluoro-5-(7-morpholin-4-yl-quinazolin-4-yl)phenyl]-hydroxymethyl}-2-methyl-2H-pyridazin-3-one], the IC50 fell in the range of 5 to 10 µM in series [1] (setting [2]) and 0.007 to 0.03 µM on DNA-PK (enzymatic, 5 μM ATP). Further, the Ki at Kv11.1 (hERG) (setting [3]) is 15 to 25 µM.
As for `COC(=O)c1ccc(C(O)c2cc(-c3ncnc4cc(N5CCOCC5)ccc34)c(F)cc2Cl)nn1` (stereo not drawn) [Example 58, 6-{[2-Chloro-4-fluoro-5-(7-morpholin-4-yl-quinazolin-4-yl)phenyl]-hydroxymethyl}-pyridazine-3-carboxylic acid methyl ester], the IC50 in series [1] (setting [2]) was in the range of 5 to 10 µM; at DNA-PK (enzymatic, 5 μM ATP), 0.003 to 0.007 µM. The Ki on Kv11.1 (hERG) (setting [6]) was > 25 µM.
`OC(c1cc(-c2ncnc3cc(N4CCOCC4)ccc23)ccc1Cl)c1ncncc1F` (stereo not drawn) [Example 390, [2-Chloro-5-(7-morpholin-4-yl-quinazolin-4-yl)-phenyl]-(5-fluoro-pyrimidin-4-yl)-methanol]: the results for the IC50 (in series [1] (setting [4]); against DNA-PK (biochemical DNA-PK assay)) were 0.5 to 5 µM and 0.003 to 0.007 µM, respectively. Besides, the Ki at Kv11.1 (hERG) (setting [5]) was in the range of 15 to 25 µM.
For `Cn1c(C(O)c2cc(-c3ncnc4cc(N5CCOCC5)ccc34)c(F)cc2F)cccc1=O` (stereo not drawn) [Example 380, 6-{[2,4-Difluoro-5-(7-morpholin-4-yl-quinazolin-4-yl)-phenyl]hydroxy-methyl}-1-methyl-1H-pyridin-2-one], the IC50 was in the range of 0.5 to 5 µM in series [1] (setting [4]) and 0.003 to 0.007 µM at DNA-PK (biochemical DNA-PK assay). The Ki at Kv11.1 (hERG) (setting [7]) is > 25 µM.
For the compound `OC(c1ccc(F)c(-c2ncnc3cc(N4CCOCC4)ccc23)c1)c1nnc2ccccn12` (stereo not drawn) [Example 343, [4-Fluoro-3-(7-morpholin-4-yl-quinazolin-4-yl)-phenyl]-[1,2,4]-triazolo[4,3-a]pyridin-3-ylmethanol], the IC50 in series [1] (setting [4]) was 0.5 to 5 µM; at DNA-PK (biochemical DNA-PK assay), < 0.003 µM. In addition, the Ki at Kv11.1 (hERG) (setting [5]) is 15 to 25 µM.
On to `CN1CCN(c2nccnc2C(O)c2ccc(F)c(-c3ncnc4cc(N5CCOCC5)ccc34)c2)C1=O` (stereo not drawn) [Example 424, 1-(3-{[4-Fluoro-3-(7-morpholin-4-yl-quinazolin-4-yl)-phenyl]hydroxy-methyl}pyrazin-2-yl)-3-methyl-imidazolidin-2-one], for which the IC50 is 10 to 30 µM in series [1] (setting [4]) and > 0.03 µM on DNA-PK (biochemical DNA-PK assay). Besides, on Kv11.1 (hERG) (setting [7]), the Ki was > 25 µM.
Take `COc1ccc(C(O)c2cc(-c3ncnc4cc(N5CCOCC5)ccc34)c(F)cc2F)cc1` (stereo not drawn) [Example 120, [2.4-Difluoro-5-(7-morpholin-4-yl-quinazolin-4-yl)-phenyl]-(4-methoxyphenyl)-methanol]: the IC50 in series [1] (setting [2]) fell in the range of 0.5 to 5 µM; on DNA-PK (enzymatic, 5 μM ATP) it was 0.007 to 0.03 µM. Besides, the Ki on Kv11.1 (hERG) (setting [6]) was < 10 µM.
